Experimental data from US10562857B2 (AFASCI, Inc., priority 2015, dated 2020).
“Also recorded” adds a separate entry of the source. Blank lines part the entries; values can stand above or below the compound they belong to.

Experiments:
T-type Ca2+ current = settings: Avdonin et al., 2000; cited from earlier work
CFA mice = assay: Complete Freund's Adjuvant (CFA)-induced inflammatory pain in mice, von Frey test; assay type: in vivo, mouse; settings: 30 mg/kg I.P.
Method: FIG. 7. Effects of EXAMPLE-96, 107 or 115 (each 30 mg/kg, I.P.) or gabapentin (as a benchmark, 100 mg/kg, I.P) on Complete Freund's Adjuvant (CFA)-induced inflammation in male, mice (C57BL/6, ˜2 months old; n=8 mice per group). Mechanical pain threshold assessment of CFA mice's left hindpaws were measured using von Frey monofilament test at 0.5, 1, 2, 4, and 6 hours after treatment.
Because knockout or antisense knockdown of the Cav3.2 isoform produces analgesic effects in neuropathic pain as well as in inflammatory pain in mice (Choi et al., 2007), we used the Complete Freund adjuvant (CFA)-inflammatory pain in mice to investigate the drug effects. EXAMPLE-96, -115, and -107 (each at 30 mg/kg, I.P.) and a reference gabapentin (100 mg/kg, I.P.) was individually administered to mice that had CFA-induced inflammation on their left hindpaws.

SNI rats [1] = assay: Spared nerve injury (SNI) rats, Hargreaves thermal test; assay type: in vivo, rat; settings: 30 mg/kg, 1 mL I.P.
Method: FIG. 3A. Spared Nerve Injury (SNI) rats' left hindpaw withdrawal latencies in response to thermal stimulation (Hargreaves test). Each SNI rat received either EXAMPLE-106, 107, or 115, (each 30 mg/kg, 1 mL I.P.), or vehicle (2% DMSO in 0.5% HPC). Sham rats also received vehicle I.P. injections. […] 40 seconds were cutoff in order to prevent tissue damage. The sham-vehicle serves as a positive control (n=8 per treatment group).
(§1) In additional examples shown here, the analgesic effects were further evaluated in another rat species. Baseline thermal and mechanical thresholds of male rats (Sprague-Dawley rats, 275 g-325 g, Harlan) were taken prior to surgery; baseline thresholds were measured on the rats' left hindpaws. Thirty-two rats underwent the SNI surgery on their left hind leg; 8 rats underwent surgery without injury of the nerves as a sham group. Two weeks post-surgery, the thermal thresholds of each rat were reassessed. […] Each rat received either EXAMPLE-106, -107, -115 (each 30 mg/kg, 1 mL I.P.), or vehicle (2% DMSO in 0.5% HPC). Thermal and mechanical thresholds were measured at 1, 2, 3, 4, 5, 6, 7, and 8 hours post-treatment/dosing. […] The drug actions started around 1 hour post-injection and peaked between 2 and 3 hours, and the drug effects gradually declined to pre-treatment levels over 6-7 hours (FIGS. 3A and B).

SNI rats [2] = assay: Spared nerve injury (SNI) rats, von Frey monofilament test; assay type: in vivo, rat
Method: FIG. 3B. Mechanical pain threshold assessment (von Frey monofilament test) of SNI rats' left hindpaws. Each SNI rat received either EXAMPLE-106, -107, and -115 (each 30 mg/kg, 1 mL I.P.), or vehicle (1 mL I.P. 2% DMSO in 0.5% HPC). Sham rats also received vehicle I.P. injections. […] The sham-vehicle serves as a positive control. Thermal and mechanical pain responses were measured once every hour for 8 consecutive hours after I.P. treatment (n=8 rats per treatment group).
FIG. 4. Mechanical pain threshold assessment (von Frey monofilament test) of left hindpaws in another cohort of SNI rats. Each SNI rat received either EXAMPLE-128, -130, -132, or Z944 (as a reference compound, each 10 mg/kg, 2 mL oral gavage, P.O.). […] Mechanical pain responses were measured at pre-dosing, 1, 2, 4, and 6 hours post-treatment using von Frey monofilament test (n=8 rats per group).
as §1
In another cohort of SNI rats ((n=8 per group)), mechanical thresholds were measured at pre-dosing, 1, 2, 4, and 6 hours post-treatment using von Frey monofilament test.

Cav3.2 channel = target: T1, Cav3.2 channel (Homo sapiens, UniProt O95180); assay: Whole-cell patch clamp of T-type Cav3.2 channel expressed in HEK293 cells; assay type: cell-based; settings: for inhibition at 1 µM: HEK293, Table 1 primary screening
T1 construct: expressed in transfected cells; host or cells: HEK-293, tetracycline inducible expression system (Invitrogen)

[3] = system: incision-induced pain in mice; assay: Incision-induced acute pain in mice, von Frey test; assay type: in vivo, mouse; settings: 30 mg/kg I.P.
Method: FIG. 9. Effects of EXAMPLE-116, -118 or ML218 (a reference compound) on incision-induced acute pain in mice (C57BL/6, male, ˜2 months old; n=8 mice per treatment group). Mechanical pain threshold assessment (von Frey monofilament test) of the mice's incision left hindpaws. Each mouse received either EXAMPLE-116, -118, or ML218 (as a reference compound, each 30 mg/kg, I.P.) or vehicle (2% DMSO in 0.5% HPC, I.P.). Mechanical pain responses were measured at 0.5, 1, 2, 4, and 5 hours after treatment.
To further confirm the Cav3 modulator effects on acute pain and neurogenic inflammatory pain, an incision-pain mode in mice was used. Postoperative pain model induced by a deep incision in the hindpaw produces robust mechanical allodynia (Pogatzki et al., 2003). Mechanical pain thresholds were assessed using von Frey monofilament test of the incised left hindpaws. Each mouse received either EXAMPLE-116, -118, ML218 (as a reference compound, each 30 mg/kg, I.P.) or vehicle (2% DMSO in 0.5% HPC, I.P., n=8 mice per treatment group). Mechanical pain responses were measured at 0.5, 1, 2, 4, and 5 hours after treatment.

[4] = system: taxol-induced neuropathic pain model in mice; assay: Taxol-induced neuropathic pain in mice, von Frey test; assay type: in vivo, mouse; settings: 30 mg/kg I.P.
Method: FIG. 6A. Effects of EXAMPLE-115 on taxol (4 mg/kg, I.P.)-induced neuropathic pain model in mice. Mechanical pain thresholds of left hindpaws were assessed using von Frey monofilament test. Each mouse received either EXAMPLE-115 (3, 10 or 30 mg/kg, I.P.) or vehicle (2% DMSO in 0.5% HPC, I.P.; n=8 per group). Injection of taxol lowered mechanical pain thresholds.
FIG. 6B. Effects of EXAMPLE-123 on taxol (4 mg/kg, I.P.)-induced neuropathic pain model in a separate cohort of mice. Mechanical pain thresholds of left hindpaws were assessed using von Frey monofilament test. Each mouse received either EXAMPLE-123 (30 mg/kg, I.P., n=8) or vehicle (2% DMSO in 0.5% HPC, I.P.).
Chemotherapy-induced painful neuropathy is a common side effect associated with chronic treatment with Taxol (paclitaxel) or other anticancer drugs based on cytotoxicity. Taxol or paclitaxel is one of the most popular drugs used for the treatment of various cancers (Chaudhry et al., 1994). The chemotherapy-induced peripheral neuropathy manifests as chronic hyperalgesia and other sensory abnormalities. Taxol (Sigma, 4.0 mg/kg, I.P.) was dissolved in saline containing 5% DMSO (vehicle) and injected to mice (freshly prepared before injection).

T1 sequence (O95180 whole entry): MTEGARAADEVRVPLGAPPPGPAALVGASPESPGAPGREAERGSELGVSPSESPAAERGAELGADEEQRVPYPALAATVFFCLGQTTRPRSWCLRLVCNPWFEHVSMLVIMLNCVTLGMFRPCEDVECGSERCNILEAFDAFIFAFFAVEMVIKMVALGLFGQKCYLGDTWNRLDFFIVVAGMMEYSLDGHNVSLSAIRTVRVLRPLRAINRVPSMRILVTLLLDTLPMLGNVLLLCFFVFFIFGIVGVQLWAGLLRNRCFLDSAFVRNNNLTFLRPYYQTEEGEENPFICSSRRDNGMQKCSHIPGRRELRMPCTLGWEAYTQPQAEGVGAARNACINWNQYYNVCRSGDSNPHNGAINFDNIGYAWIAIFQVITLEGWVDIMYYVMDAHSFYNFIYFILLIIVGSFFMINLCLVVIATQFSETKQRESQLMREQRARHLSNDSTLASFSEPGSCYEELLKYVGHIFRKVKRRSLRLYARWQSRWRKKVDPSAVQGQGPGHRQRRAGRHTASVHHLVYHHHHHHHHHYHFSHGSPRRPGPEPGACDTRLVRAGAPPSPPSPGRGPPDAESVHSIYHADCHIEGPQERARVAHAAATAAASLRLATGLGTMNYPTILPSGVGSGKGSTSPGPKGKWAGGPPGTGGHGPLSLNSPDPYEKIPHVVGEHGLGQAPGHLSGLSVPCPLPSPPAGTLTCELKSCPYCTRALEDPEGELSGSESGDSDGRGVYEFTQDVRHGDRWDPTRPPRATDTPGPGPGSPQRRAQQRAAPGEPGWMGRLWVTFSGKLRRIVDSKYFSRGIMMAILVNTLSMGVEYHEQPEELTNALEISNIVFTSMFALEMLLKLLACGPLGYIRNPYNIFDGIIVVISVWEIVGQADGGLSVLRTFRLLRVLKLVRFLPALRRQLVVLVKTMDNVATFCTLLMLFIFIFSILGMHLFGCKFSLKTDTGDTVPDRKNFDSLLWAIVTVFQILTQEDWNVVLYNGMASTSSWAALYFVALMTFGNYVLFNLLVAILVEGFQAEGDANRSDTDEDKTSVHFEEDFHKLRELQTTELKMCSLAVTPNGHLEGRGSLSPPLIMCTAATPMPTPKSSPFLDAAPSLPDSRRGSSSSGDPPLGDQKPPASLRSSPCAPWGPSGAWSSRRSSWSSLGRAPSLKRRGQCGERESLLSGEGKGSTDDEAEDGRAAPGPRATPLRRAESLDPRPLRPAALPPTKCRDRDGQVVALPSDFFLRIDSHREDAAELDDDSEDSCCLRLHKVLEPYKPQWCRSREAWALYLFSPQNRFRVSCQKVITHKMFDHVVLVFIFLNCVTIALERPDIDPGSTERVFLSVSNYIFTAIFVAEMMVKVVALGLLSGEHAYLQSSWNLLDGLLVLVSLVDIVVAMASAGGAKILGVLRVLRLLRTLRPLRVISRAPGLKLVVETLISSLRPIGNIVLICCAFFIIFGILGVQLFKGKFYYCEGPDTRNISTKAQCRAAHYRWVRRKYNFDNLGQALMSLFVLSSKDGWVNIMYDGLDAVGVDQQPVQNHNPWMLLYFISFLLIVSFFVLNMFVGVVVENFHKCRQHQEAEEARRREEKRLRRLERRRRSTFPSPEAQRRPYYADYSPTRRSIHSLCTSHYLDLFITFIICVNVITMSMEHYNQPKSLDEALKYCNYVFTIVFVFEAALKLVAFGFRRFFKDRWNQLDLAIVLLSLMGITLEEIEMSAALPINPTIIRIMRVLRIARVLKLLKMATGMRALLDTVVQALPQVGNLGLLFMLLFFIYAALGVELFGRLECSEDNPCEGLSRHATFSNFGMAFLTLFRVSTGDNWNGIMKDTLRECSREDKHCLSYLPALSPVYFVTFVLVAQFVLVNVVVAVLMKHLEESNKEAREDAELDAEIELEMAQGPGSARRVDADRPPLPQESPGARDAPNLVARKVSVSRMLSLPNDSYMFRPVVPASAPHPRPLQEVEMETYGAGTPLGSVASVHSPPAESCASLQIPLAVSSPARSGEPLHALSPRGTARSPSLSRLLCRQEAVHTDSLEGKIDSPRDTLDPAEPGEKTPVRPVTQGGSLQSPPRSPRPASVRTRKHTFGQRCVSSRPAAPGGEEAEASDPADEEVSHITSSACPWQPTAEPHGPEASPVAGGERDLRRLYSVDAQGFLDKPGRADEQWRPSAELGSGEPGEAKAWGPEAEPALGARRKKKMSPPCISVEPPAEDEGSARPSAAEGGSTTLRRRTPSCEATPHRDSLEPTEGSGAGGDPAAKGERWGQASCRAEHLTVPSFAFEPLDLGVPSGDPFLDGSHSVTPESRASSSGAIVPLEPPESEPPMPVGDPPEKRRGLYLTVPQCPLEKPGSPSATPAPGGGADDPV

SMILES: COCC(=O)O[C@]1(CCN(C)CCCc2nc3ccccc3[nH]2)CCc2cc(F)ccc2[C@@H]1C(C)C [mibefradil]
potency of T-type inhibition relative to L-type Ca2+ current or voltage-gated Na+ current (T-type Ca2+ current): 3-10 times

inhibition at 1 µM (Cav3.2 channel): 21%
SMILES: CC1(CNC(=O)c2ccccc2)CCN(CC(=O)NC(C)(C)C)CC1 [Example 107, N-((1-(2-(tert-butylamino)-2-oxoethyl)-4-methylpiperidin-4-yl)methyl)benzamide]
mechanical pain threshold, CFA-induced inflammation (CFA mice): showed an analgesic effect in mechanical pain
left hindpaw withdrawal latency to thermal stimulation (hyperalgesia) (SNI rats [1]): elevated both thermal and mechanical thresholds; also recorded: reduced hyperalgesia
start of drug action post-injection (SNI rats [2]; 30 mg/kg I.P., thermal and mechanical thresholds): around 1 hour
mechanical pain threshold of left hindpaw (allodynia) (SNI rats [2]; 30 mg/kg, 1 mL I.P.): elevated both thermal and mechanical thresholds; also recorded: reduced allodynia

inhibition at 1 µM (Cav3.2 channel): 20%
SMILES: O=C(CCc1cccc(Cl)c1)Nc1nnc(-c2ccc(Cl)s2)o1 [Example 118, 3-(3-Chlorophenyl)-N-(5-(5-chlorothiophen-2-yl)-1,3,4-oxadiazol-2-yl)propanamide]
mechanical pain threshold, incision-induced pain [3]: inhibited incision-induced inflammatory pain

IC50 (Cav3.2 channel; Table 1, tested at at least 4 concentrations, read-out: IC50): 5.1 µM
SMILES: O=C(CNc1ccccc1)Nc1nnc(-c2ccccc2)o1 [Example 123, N-(5-Phenyl-1,3,4-oxadiazol-2-yl)-2-(phenylamino)acetamide]
duration of reduction of taxol-induced neuropathic pain [4]: at least 5 hours
mechanical pain threshold, taxol-induced neuropathic pain ([4]; taxol 4 mg/kg I.P.): caused significant effects on Taxol-induced pain; also recorded: reduced the taxol-induced neuropathic pain

inhibition at 1 µM (Cav3.2 channel): 10%
SMILES: O=C(Nc1nnc(-c2ccc(Cl)s2)o1)N1C(=O)c2cc(Cl)c(Cl)cc2C1=O [Example 116, 5,6-Dichloro-N-(5-(5-chlorothiophen-2-yl)-1,3,4-oxadiazol-2-yl)-1,3-dioxoisoindoline-2-carboxamide]
mechanical pain threshold, incision-induced pain [3]: inhibited incision-induced inflammatory pain
